ChEMBL document CHEMBL4346712, “Research progress in the biological activities of 3,4,5-trimethoxycinnamic acid (TMCA) derivatives” (Eur J Med Chem, 2019)
Values after ≈ are worked out from the molar mass of the structure shown.

Experiments:
[1] = Growth inhibition of HUVEC at 5 uM relative to control; assay type: cell-based; conditions: human, HUVEC cells; read-out: GI
[2] = Growth inhibition of HUVEC; assay type: cell-based; conditions: human, HUVEC cells
[3] = Cytotoxicity against BHK21 cells assessed as reduction in cell viability after 48 hrs by MTT assay; assay type: cell-based, Mesocricetus auratus, BHK-21; conditions: hamster
[4] = Selectivity index, ratio of CC50 for BHK21 cells to IC50 for Candida tropicalis ATCC 750; assay type: toxicity; conditions: hamster, read-out: Ratio CC50/IC50
Candida tropicalis = assay: Antifungal activity against Candida tropicalis ATCC 750 after 24 hrs by CLSI broth microdilution method; assay type: functional, organism-based; conditions: ATCC 750, 24 h
Pichia kudriavzevii = assay: Antifungal activity against Candida krusei ATCC 6258 after 24 hrs by CLSI broth microdilution method; assay type: functional, organism-based; conditions: ATCC 6258, 24 h
[5] = Selectivity index, ratio of CC50 for BHK21 cells to IC50 for Candida krusei ATCC 6258; assay type: toxicity; conditions: hamster, read-out: Ratio CC50/IC50
EL4 = assay: Antitumor activity against mouse EL4 cells by MTT assay
CPAE = assay: Cytotoxic activity against cow CPAE cells by MTT assay; conditions: Bos taurus
[6] = Antioxidant activity assessed as DPPH radical scavenging activity at 50 ug/ml relative to control; assay type: functional
[7] = target: T1, Bifunctional epoxide hydrolase 2 (Homo sapiens) (UniProt P34913); assay: Competitive inhibition of soluble epoxide hydrolase (unknown origin) at 100 uM relative to control
T1 sequence (whole entry): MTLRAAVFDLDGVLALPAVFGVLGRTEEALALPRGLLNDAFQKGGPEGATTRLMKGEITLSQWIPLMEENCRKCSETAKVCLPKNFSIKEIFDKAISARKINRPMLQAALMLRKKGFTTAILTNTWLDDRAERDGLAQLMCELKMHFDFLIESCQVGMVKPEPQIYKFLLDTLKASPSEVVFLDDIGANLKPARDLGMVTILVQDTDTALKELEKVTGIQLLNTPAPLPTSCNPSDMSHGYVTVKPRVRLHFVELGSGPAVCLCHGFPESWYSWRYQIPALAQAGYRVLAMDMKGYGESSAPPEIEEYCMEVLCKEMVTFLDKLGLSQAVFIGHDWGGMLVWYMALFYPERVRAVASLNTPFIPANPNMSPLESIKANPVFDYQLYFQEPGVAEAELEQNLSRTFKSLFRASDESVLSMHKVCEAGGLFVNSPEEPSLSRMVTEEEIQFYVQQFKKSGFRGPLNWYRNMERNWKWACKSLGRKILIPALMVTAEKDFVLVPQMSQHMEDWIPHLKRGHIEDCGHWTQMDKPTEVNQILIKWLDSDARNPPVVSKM

[8] = target: T2, Bifunctional epoxide hydrolase 2 (Homo sapiens, UniProt P34913); assay: Competitive inhibition of soluble epoxide hydrolase (unknown origin)
T2 sequence (P34913 whole entry): T1 sequence (whole entry)

Hepatitis B virus [9] = assay: Antiviral activity against Hepatitis B virus infected in human HepG2.2.15 cells assessed as reduction in HBsAg secretion by ELISA; assay type: functional, organism-based
HepG2 2.2.15 = assay: Cytotoxicity against human HepG2(2.2.15) cells after 24 hrs by MTT assay; assay type: functional; conditions: HepG2 2.2.15, 24 h
Hepatitis B virus [10] = assay: Antiviral activity against Hepatitis B virus infected in human HepG2.2.15 cells assessed as reduction in HBeAg secretion by ELISA; assay type: functional, organism-based
[11] = Selectivity index, ratio of CC50 for BHK21 cells to IC50 for Candida parapsilosis ATCC 22019; assay type: toxicity; conditions: hamster, read-out: Ratio CC50/IC50
Platelet [12] = assay: Antiplatelet activity in rabbit platelet rich plasma assessed as inhibition of PAF-induced platelet aggregation at 150 uM preincubated for 3 mins followed by PAF addition measured after 10 mins relative to control; assay type: functional; conditions: Oryctolagus cuniculus
[13] = Selectivity index, ratio of CC50 for BHK21 cells to IC50 for Candida albicans ATCC 10231; assay type: toxicity; conditions: hamster, read-out: Ratio CC50/IC50
Platelet [14] = assay: Antiplatelet activity in rabbit platelet rich plasma assessed as inhibition of thrombin-induced platelet aggregation at 300 uM preincubated for 3 mins followed by thrombin addition measured after 10 mins relative to control; assay type: functional; conditions: Oryctolagus cuniculus
Platelet [15] = assay: Antiplatelet activity in rabbit platelet rich plasma assessed as inhibition of arachidonic acid-induced platelet aggregation at 300 uM preincubated for 3 mins followed by arachidonic acid addition measured after 10 mins relative to control; assay type: functional; conditions: Oryctolagus cuniculus
Candida parapsilosis = assay: Antifungal activity against Candida parapsilosis ATCC 22019 after 24 hrs by CLSI broth microdilution method; assay type: functional, organism-based; conditions: Lodderomyces parapsilosis, ATCC 22019, 24 h
Platelet [16] = assay: Antiplatelet activity in rabbit platelet rich plasma assessed as inhibition of collagen-induced platelet aggregation at 300 uM preincubated for 3 mins followed by collagen addition measured after 10 mins relative to control; assay type: functional; conditions: Oryctolagus cuniculus
[17] = Selectivity index, ratio of CC50 for BHK21 cells to IC50 for Staphylococcus aureus ATCC 6538; assay type: toxicity; conditions: hamster, read-out: Ratio CC50/IC50
Staphylococcus aureus = assay: Antibacterial activity against Staphylococcus aureus ATCC 6538 after 24 hrs by CLSI broth microdilution method; assay type: functional, organism-based; conditions: ATCC 6538, 24 h
Platelet [18] = assay: Antiplatelet activity in rabbit platelet rich plasma assessed as inhibition of arachidonic acid-induced platelet aggregation at 150 uM preincubated for 3 mins followed by arachidonic acid addition measured after 10 mins relative to control; assay type: functional; conditions: Oryctolagus cuniculus
Candida albicans = assay: Antifungal activity against Candida albicans ATCC 10231 after 24 hrs by CLSI broth microdilution method; assay type: functional, organism-based; conditions: ATCC 10231, 24 h
Platelet [19] = assay: Antiplatelet activity in rabbit platelet rich plasma assessed as inhibition of PAF-induced platelet aggregation at 300 uM preincubated for 3 mins followed by PAF addition measured after 10 mins relative to control; assay type: functional; conditions: Oryctolagus cuniculus
[20] = Selectivity index, ratio of CC50 for BHK21 cells to IC50 for Candida glabrata ATCC 90030; assay type: toxicity; conditions: hamster, read-out: Ratio CC50/IC50
Platelet [21] = assay: Antiplatelet activity in rabbit platelet rich plasma assessed as inhibition of collagen-induced platelet aggregation at 150 uM preincubated for 3 mins followed by collagen addition measured after 10 mins relative to control; assay type: functional; conditions: Oryctolagus cuniculus
Nakaseomyces glabratus = assay: Antifungal activity against Candida glabrata ATCC 90030 after 24 hrs by CLSI broth microdilution method; assay type: functional, organism-based; conditions: ATCC 90030, 24 h
Mus musculus = assay: Antinarcotic activity in morphine-dependent C57BL/6 mouse assessed as inhibition of naloxone-induced jumping behavior in mouse at 5 mg/kg , ip after 30 mins relative to control; assay type: functional; conditions: C57BL/6, ip, 0.5 h
[22] = target: Sodium-dependent serotonin transporter (Homo sapiens, UniProt P31645); assay: Displacement of [3H]Imipramine from human 5-HT transporter expressed in HEK-293 cell membranes after 30 mins
Chain of Sodium-dependent serotonin transporter (P31645 whole entry): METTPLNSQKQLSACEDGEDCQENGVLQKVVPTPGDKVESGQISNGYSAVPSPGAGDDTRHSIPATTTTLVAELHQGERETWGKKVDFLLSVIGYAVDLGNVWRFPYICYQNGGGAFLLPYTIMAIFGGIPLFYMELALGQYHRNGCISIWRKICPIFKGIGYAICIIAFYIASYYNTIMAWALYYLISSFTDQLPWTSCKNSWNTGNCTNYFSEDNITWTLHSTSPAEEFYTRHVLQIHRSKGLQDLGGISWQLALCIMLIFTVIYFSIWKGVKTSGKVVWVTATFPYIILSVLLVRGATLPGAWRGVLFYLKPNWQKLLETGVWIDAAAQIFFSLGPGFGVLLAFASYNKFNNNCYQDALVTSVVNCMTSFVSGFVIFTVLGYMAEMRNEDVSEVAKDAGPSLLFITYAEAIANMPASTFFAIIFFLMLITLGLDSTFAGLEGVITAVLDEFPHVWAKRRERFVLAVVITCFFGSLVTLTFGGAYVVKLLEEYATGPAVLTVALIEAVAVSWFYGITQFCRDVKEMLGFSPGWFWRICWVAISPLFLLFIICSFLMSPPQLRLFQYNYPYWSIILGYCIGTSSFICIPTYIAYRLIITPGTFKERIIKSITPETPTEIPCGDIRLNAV

[23] = target: 5-hydroxytryptamine receptor 1A (Homo sapiens, UniProt P08908); assay: Displacement of [3H]8-OH-DPAT from 5-HT1A receptor (unknown origin) expressed in CHO-K1 cell membranes after 60 mins by microbeta counting method
Chain of 5-hydroxytryptamine receptor 1A (P08908 whole entry): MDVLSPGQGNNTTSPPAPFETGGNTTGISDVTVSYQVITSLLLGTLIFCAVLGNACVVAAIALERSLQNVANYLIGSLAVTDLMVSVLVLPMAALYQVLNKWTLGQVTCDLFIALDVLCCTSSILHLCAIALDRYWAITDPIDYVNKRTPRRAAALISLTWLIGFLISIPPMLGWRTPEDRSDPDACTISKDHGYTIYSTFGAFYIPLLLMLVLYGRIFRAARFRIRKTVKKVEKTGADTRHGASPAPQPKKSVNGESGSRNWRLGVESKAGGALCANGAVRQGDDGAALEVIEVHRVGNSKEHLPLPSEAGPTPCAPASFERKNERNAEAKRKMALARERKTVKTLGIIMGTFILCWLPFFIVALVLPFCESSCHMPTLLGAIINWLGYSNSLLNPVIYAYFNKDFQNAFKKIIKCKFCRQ

`COc1cc(/C=C/C(=O)Nc2ccc(NC(=O)[C@@H](O)[C@H](N)CC3CCCCC3)cc2)cc(OC)c1OC` gave an inhibition at 5 µM [1] greater than 98% and a GI50 [2] of 0.67 µM.
Compound `COc1cc(/C=C/C(=O)N2CCOCC2)cc(OC)c1OC` has a CC50 at 48 h [3] of 186 µM, a selectivity ratio [4] of 1.89 and an IC50 (Candida tropicalis) of 97.7 µM. The IC50 (Pichia kudriavzevii) was 48.8 µM and the selectivity ratio [5] was 3.79.
In the case of `COc1cc(/C=C/C(=O)O[C@@H]2CC[C@]3(CO3)[C@@H]([C@@]3(C)O[C@@H]3CC=C(C)C)[C@@H]2OC)cc(OC)c1OC`, the IC50 (EL4) is reported as 0.15 µg/mL (≈ 0.298 µM) and the IC50 (CPAE) is reported as 0.03 µg/mL (≈ 0.0597 µM).
In the case of `COc1ccc(/C=C/COC(=O)/C=C/c2cc(OC)c(OC)c(OC)c2)cc1`, the inhibition [6] is reported as 18.6%.
Compound `COc1cc(/C=C/C(=O)O[C@H]2[C@H](O)[C@@H](CO)O[C@]2(CO)O[C@H]2O[C@H](CO)[C@@H](OC(=O)c3ccccc3)[C@H](O)[C@H]2O)cc(OC)c1OC` has an inhibition [7] greater than 100% and an IC50 [8] of 18 µM.
`COc1cc(/C=C/C(=O)ON=C2C3CC4CC(C3)CC2C4)cc(OC)c1OC` showed an IC50 (Hepatitis B virus [9]) of 107 µM, a CC50 (HepG2 2.2.15) of 507 µM and an IC50 (Hepatitis B virus [10]) of 74.8 µM.
For `COc1cc(/C=C/C(=O)N2CCC=CC2=O)cc(OC)c1OC` [PIPLARTINE], the CC50 at 48 h [3] was 40.1 µM, the selectivity ratio [11] was 0.42 and the inhibition at 150 µM (Platelet [12]) was 100%. It also gave a selectivity ratio [13] of 0.42, an inhibition at 300 µM (Platelet [14]) of 23.5% and an inhibition at 300 µM (Platelet [15]) of 100%. The IC50 (Candida parapsilosis) was 94.6 µM, the inhibition at 300 µM (Platelet [16]) was 100% and the selectivity ratio [17] was 0.12. The IC50 (Staphylococcus aureus) was 315 µM, the inhibition at 150 µM (Platelet [18]) was 76.4% and the IC50 (Pichia kudriavzevii) was 189 µM. The IC50 (Candida albicans) was 94.6 µM, the inhibition at 300 µM (Platelet [19]) was 100% and the selectivity ratio [20] was 0.21. For the same compound, the inhibition at 150 µM (Platelet [21]) was 100%, the IC50 (Nakaseomyces glabratus) was 189 µM and the selectivity ratio [5] was 0.21.
Work on `COc1cc(/C=C/C(=O)N2CC(C)CC(C)C2)cc(OC)c1OC` (stereo not given) yielded an inhibition at 150 µM (Platelet [12]) of 56.9%, an inhibition at 300 µM (Platelet [15]) of 100% and an inhibition at 300 µM (Platelet [16]) of 98.6%. For the same compound, the inhibition at 150 µM (Platelet [18]) was 100%, the inhibition at 300 µM (Platelet [19]) was 94.8% and the inhibition at 150 µM (Platelet [21]) was 97.2%.
With `COc1ccc(C(=O)OC[C@H]2O[C@H](O[C@]3(CO)O[C@H](CO)[C@@H](O)[C@@H]3OC(=O)/C=C/c3cc(OC)c(OC)c(OC)c3)[C@H](O)[C@@H](O)[C@@H]2O)cc1` the inhibition [7] was greater than 100% and the IC50 [8] was 6.4 µM.
In the case of `COc1cc(/C=C/C(=O)Nc2ccc(NC(=O)[C@@H](O)[C@H](N)Cc3ccccc3)cc2)cc(OC)c1OC`, the inhibition at 5 µM [1] is reported as 93%.
In the case of `CCCCCCCCNC(=O)/C=C/c1cc(OC)c(OC)c(OC)c1`, the inhibition in vivo at 5 mg/kg (Mus musculus) is reported as 88% and the IC50 [22] is reported as greater than 10 µM.
`COc1cc(/C=C/C(=O)Oc2ccccc2)cc(OC)c1OC` showed an IC50 [23] of 9.4 µM.
